Results published in patent publication US20150315218A1, “SALTS OF PRODRUGS OF PIPERAZINE AND SUBSTITUTED PIPERIDINE ANTIVIRAL AGENTS” (Bristol-Myers Squibb Company, priority 2004, published 2015).
Counter-ions that a name gives are not always drawn. Like-named read-outs stand apart in the source and are kept apart here.

Legend:
[1] = tested on: HIV-1; experiment: Multiple dose study in HIV patients (antiviral activity of IVa); assay type: in vivo, human
Method: Based on the exposure data from the studies in normal volunteers, an efficacy study was carried out in HIV patients. […] “Antiviral Activity, Safety, and Tolerability of a Novel, Oral Small-Molecule HIV-1 Attachment Inhibitor, IVa, in HIV-1-Infected Subjects” G. Hanna, J. Lalezari, J. Hellinger, D. Wohl, T. Masterson, W. Fiske, J. Kadow, P-F. Lin, M. Giordano, R. Colonno, D. Grasela. Abstract J-32, Feb. 11, 2004, 11th Conference on Retroviruses and Opportunistic Infections (CROI), San Francisco, Calif. The study design included HIV+ adults who were either antiretroviral therapy naïve or off antiretroviral therapy for ≧16 weeks. Their CD4 counts were required to be ≧250 cells/mm3 and plasma HIV-1 RNA needed to be in the range 5,000-500,000 c/mL. There were 15 subjects in each dose arm and the ratio of patients receiving drug:placebo was 4:1.
The placebo-controlled, sequential study of IVa utilized an initial dose arm of 800 mg PO every 12 h followed by a second dosing arm of 1800 mg PO administered every 12 h. It is important to note that drug was administered in a capsule and in combination with a high fat meal to increase exposure and plasma levels. Study drug was administered for 7 days and the morning of Day 8. Subjects were followed for 14 days.

[2] = Cytotoxicity assay (XTT dye reduction) in MT-2 cells; assay type: cell-based; settings: human, six days
[3] = rat, 10 μM
[4] = dog, 10 μM
[5] = monkey, 10 μM
[6] = 800 mg PO every 12 h with high fat meal

Structure (SMILES)	Day 8 Change in CD4, Mean (SD) [1, 6]	Day 8 Change in CD4, Range [1, 6]	Maximal Change in HIV RNA Over 14 days >0.5 log10 c/mL, n (%) [1, 6]	Maximal Change in HIV RNA Over 14 days >1.0 log10 c/mL, n (%) [1, 6]	Maximal Change in HIV RNA Over 14 days >1.5 log10 c/mL, n (%) [1, 6]	Maximal change in HIV RNA Over 14 days, Mean (SD) [1, 6]	Maximal change in HIV RNA Over 14 days, Range [1, 6] [log10 c/mL]	Day 8 Change in HIV RNA, Mean (SD) ([1]; 800 mg PO every 12 h with high fat meal, HIV+ adults)	patients with >1.0 log drop in viral load ([1]; 800 mg dosing level with high fat meal) [%]	mean response (drop in viral load) ([1]; 1800 mg every 12 h with high fat meal) [log 10]	CC50 at 6 days [2] [µM]	Icb ([3]; 0 min) [µM]	Icb ([3]; 15 min) [µM]	Icb ([3]; 90 min) [µM]	Icb ([4]; 0 min) [µM]	Icb ([4]; 15 min) [µM]	Icb ([4]; 90 min) [µM]	Icb ([5]; 0 min) [µM]	Icb ([5]; 15 min) [µM]	Icb ([5]; 90 min) [µM]
COc1ncc(OC)c2c(C(=O)C(=O)N3CCN(C(=O)c4ccccc4)CC3)c[nH]c12 [IVa, N-(benzoyl)-N′-[(4,7-dimethoxy-6-azaindol-3-yl)-oxoacetyl]piperazine]	106 (151) cells/mm3	−214 to +272 cells/mm3	8 (67%) n (%)	7 (58%) n (%)	3 (25%) n (%)	−1.00 (0.50) log10 c/mL	−0.32 to −1.60	−0.72 (0.51) log10 c/mL	58	−0.96	> 10	–	–	–	–	–	–	–	–	–
COc1cnc(-n2cnc(C)n2)c2c1c(C(=O)C(=O)N1CCN(C(=O)c3ccccc3)CC1)cn2COP(=O)(O)O [Icb, [3-[(4-benzoylpiperazin-1-yl)(oxo)acetyl]-4-methoxy-7-(3-methyl-1H-1,2,4-triazol-1-yl)-1H-pyrrolo[2,3-c]pyridin-1-yl]methyl dihydrogen phosphate, 2-amino-2-(hydroxymethyl)propane-1,3-diol salt (1:1)]	–	–	–	–	–	–	–	–	–	–	–	7.6	6.5	2.1	10	9.7	6.9	9.3	7.1	1.1
